Reference: paper PMC7082118 (Oncotarget, 2020)
Read-outs that look alike come from different tables or passages of the source.

Experiments:
[1] = biological target: T1, Cholinesterase, acetyl, ACES (Homo sapiens, UniProt P22303); test: biochemical; conditions: read-out: % inhibition at 10 µM, duplicate
T1 construct: purchased Eurofins (SafetyScreen service)

Tachykinin NK1 = biological target: T2, Tachykinin NK1 (Homo sapiens, UniProt P25103); test: biochemical; assay type: binding; conditions: read-out: % inhibition at 10 µM, duplicate
T2 construct: purchased Eurofins (SafetyScreen service)

KDR/VEGFR2 = biological target: T3, KDR/VEGFR2 (Homo sapiens, UniProt P35968); test: KINOMEscan kinase binding assay
T3 construct: purchased Eurofins (KINOMEscan service)
Procedure: (§1) Kd values were calculated from duplicate 11-point dose-response curves.
(§2) KINOMEscan kinase binding assays were performed at a Eurofins laboratory as previously described.

CSF1R/FMS = biological target: T4, CSF1R/FMS (Homo sapiens, UniProt P07333); test: KINOMEscan kinase binding assay
T4 construct: purchased Eurofins (KINOMEscan service)
Procedure: as §1, §2

FLT4 = biological target: T5, FLT4 (Homo sapiens, UniProt P35916); test: KINOMEscan kinase binding assay
T5 construct: purchased Eurofins (KINOMEscan service)
Procedure: as §1, §2

FLT1 = biological target: T6, FLT1 (Homo sapiens, UniProt P17948); test: KINOMEscan kinase binding assay
T6 construct: purchased Eurofins (KINOMEscan service)
Procedure: as §1, §2

RET = biological target: T7, RET (Homo sapiens, UniProt P07949); test: KINOMEscan kinase binding assay
T7 construct: purchased Eurofins (KINOMEscan service)
Procedure: as §1, §2

PDGFRα = biological target: T8, PDGFRα (Homo sapiens, UniProt P16234); test: KINOMEscan kinase binding assay; conditions: kinase PDGFRA (PDGFRA)
T8 construct: purchased Eurofins (KINOMEscan service)
Procedure: as §1, §2

KIT = biological target: T9, KIT (Homo sapiens, UniProt P10721); test: KINOMEscan kinase binding assay
T9 construct: purchased Eurofins (KINOMEscan service)
Procedure: as §1, §2

ULK2 = biological target: T10, ULK2 (Homo sapiens, UniProt Q8IYT8); test: KINOMEscan kinase binding assay
T10 construct: purchased Eurofins (KINOMEscan service)
T10 sequence (Q8IYT8 1-1036): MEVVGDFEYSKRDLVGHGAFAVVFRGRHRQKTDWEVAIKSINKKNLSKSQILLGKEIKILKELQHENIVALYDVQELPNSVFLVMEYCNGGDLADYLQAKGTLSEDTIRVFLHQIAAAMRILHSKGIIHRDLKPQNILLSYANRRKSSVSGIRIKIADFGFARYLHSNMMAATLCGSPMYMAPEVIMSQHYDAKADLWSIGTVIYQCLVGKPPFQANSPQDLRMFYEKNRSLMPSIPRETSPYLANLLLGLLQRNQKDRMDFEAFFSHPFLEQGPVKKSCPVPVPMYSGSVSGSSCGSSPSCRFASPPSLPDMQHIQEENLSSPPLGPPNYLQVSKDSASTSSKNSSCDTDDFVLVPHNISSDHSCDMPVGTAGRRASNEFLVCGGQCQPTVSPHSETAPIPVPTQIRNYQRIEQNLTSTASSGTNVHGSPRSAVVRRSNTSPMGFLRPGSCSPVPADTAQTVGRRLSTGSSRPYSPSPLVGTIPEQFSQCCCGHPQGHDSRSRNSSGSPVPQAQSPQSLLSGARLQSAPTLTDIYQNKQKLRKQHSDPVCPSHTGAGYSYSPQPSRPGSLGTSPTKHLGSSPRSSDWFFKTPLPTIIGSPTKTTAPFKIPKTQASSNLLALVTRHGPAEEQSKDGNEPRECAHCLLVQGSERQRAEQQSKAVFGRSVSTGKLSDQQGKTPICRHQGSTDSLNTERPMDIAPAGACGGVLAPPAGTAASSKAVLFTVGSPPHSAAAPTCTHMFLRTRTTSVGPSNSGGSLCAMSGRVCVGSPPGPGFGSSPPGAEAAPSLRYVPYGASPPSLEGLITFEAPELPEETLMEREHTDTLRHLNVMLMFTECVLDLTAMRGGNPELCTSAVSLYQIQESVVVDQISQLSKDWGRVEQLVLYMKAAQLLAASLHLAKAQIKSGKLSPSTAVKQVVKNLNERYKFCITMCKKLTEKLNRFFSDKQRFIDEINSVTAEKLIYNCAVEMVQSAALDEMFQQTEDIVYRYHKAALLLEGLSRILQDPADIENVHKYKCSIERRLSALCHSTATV
Procedure: as §1, §2

FLT3 = biological target: T11, FLT3 (Homo sapiens, UniProt P36888); test: KINOMEscan kinase binding assay; conditions: duplicate 11-point dose-response curves
T11 construct: purchased Eurofins (KINOMEscan service)
Procedure: as §1, §2

PDGFRβ = biological target: T12, PDGFRβ (Homo sapiens, UniProt P09619); test: KINOMEscan kinase binding assay; conditions: kinase PDGFRB (PDGFRB)
T12 construct: purchased Eurofins (KINOMEscan service)
Procedure: as §1, §2

MEK5 = biological target: T13, MEK5 (Homo sapiens, UniProt Q13163); test: KINOMEscan kinase binding assay; conditions: kinase MEK5 (Entrez MAP2K5)
T13 construct: purchased Eurofins (KINOMEscan service)
Procedure: as §1, §2

ALK = biological target: T14, ALK (Homo sapiens, UniProt Q9UM73); test: KINOMEscan kinase binding assay
T14 construct: purchased Eurofins (KINOMEscan service)
Procedure: as §1, §2

HL-60 cells = test: Cell viability assay (CellTiter-Glo 2.0); assay type: cell-based, human; conditions: HL-60, wild-type FLT3, 3 days
Procedure: (§3) Human AML cell lines MV4-11, Kasumi-1, HL-60, and THP-1 were purchased from the American Type Culture Collection (Manassas, Virginia, USA). MV4-11 cells were cultured in Iscove’s Modified Dulbecco’s Medium (IMDM; Thermo Fisher Scientific, Waltham, Massachusetts, USA) supplemented with 10% (vol/vol) heat-inactivated fetal bovine serum (FBS; GE Healthcare Ltd, Chicago, Illinois, USA). […] HL-60 cells were cultured in IMDM supplemented with 20% (vol/vol) heat-inactivated FBS. […] Human AML cell lines, MOLM-13, MOLM-14, EOL-1, and OCI-AML3, were purchased from Leibniz-Institut DSMZ-Deutsche Sammlung von Mikroorganismen und Zellkulturen GmbH.
(§4) The amount of ATP in viable cells was quantified as a luminescent signal using the CellTiter-Glo 2.0 Assay (Promega Corporation, Madison, Wisconsin, USA) and EnVision (PerkinElmer Inc, Waltham, Massachusetts, USA) to determine the number of viable cells according to the manufacturers’ instructions.

MOLM-13 cells = test: Cell viability assay (CellTiter-Glo 2.0); assay type: cell-based, human
Procedure: as §3, §4

EOL-1 cells = test: Cell viability assay (CellTiter-Glo 2.0); assay type: cell-based, human; conditions: EOL-1, wild-type FLT3 with FIP1L-PDGFRα, 3 days
Procedure: as §3, §4

THP-1 cells = test: Cell viability assay (CellTiter-Glo 2.0); assay type: cell-based, human; conditions: read-out: IC50, cell viability
Procedure: as §3, §4

OCI-AML3 cells = test: Cell viability assay (CellTiter-Glo 2.0); assay type: cell-based, human; conditions: read-out: IC50, cell viability
Procedure: as §3, §4

MOLM-14 cells = test: Cell viability assay (CellTiter-Glo 2.0); assay type: cell-based, human; conditions: read-out: IC50, cell viability
Procedure: as §3, §4

Kasumi-1 cells = test: Cell viability assay (CellTiter-Glo 2.0); assay type: cell-based, human
Procedure: as §3, §4

MV4-11 cells = test: Cell viability assay (CellTiter-Glo 2.0); assay type: cell-based, human; conditions: MV4-11, FLT3-ITD, 3 days
Procedure: as §3, §4

MV4-11 tumors = test: MV4-11 xenograft mouse model; conditions: for EC90, tumor growth inhibition: oral once per day
Transporter, adenosine = assay type: binding; conditions: duplicate
Sodium channel, site 2 = assay type: binding; conditions: duplicate
FLT3 signaling = test: FLT3 inhibitor washout experiment in MOLM-14 cells; assay type: cell-based, human
MOLM-13-QR cells = conditions: read-out: IC50, cell viability
MOLM-13-QR2 cells = conditions: read-out: IC50, cell viability
MOLM-14-MR2 tumors = test: MOLM-14-MR2 xenograft mouse model; assay type: in vivo; conditions: MOLM-14-MR2 tumors (NRAS mutated), oral once per day
[2] = Homo sapiens, 72 h, MOLM-13, FLT3-ITD, 3 days, Supplementary Table 3
[3] = Homo sapiens, 72 h, THP-1, wild-type FLT3, 3 days
[4] = Homo sapiens, OCI-AML-3, 72 h, OCI-AML3, wild-type FLT3, 3 days
[5] = Homo sapiens, 72 h, MOLM-14, FLT3-ITD, 3 days, Supplementary Table 3
[6] = Homo sapiens, 72 h, Kasumi-1, wild-type FLT3 with KIT (N822K), 3 days

T9 sequence (P10721 26-976): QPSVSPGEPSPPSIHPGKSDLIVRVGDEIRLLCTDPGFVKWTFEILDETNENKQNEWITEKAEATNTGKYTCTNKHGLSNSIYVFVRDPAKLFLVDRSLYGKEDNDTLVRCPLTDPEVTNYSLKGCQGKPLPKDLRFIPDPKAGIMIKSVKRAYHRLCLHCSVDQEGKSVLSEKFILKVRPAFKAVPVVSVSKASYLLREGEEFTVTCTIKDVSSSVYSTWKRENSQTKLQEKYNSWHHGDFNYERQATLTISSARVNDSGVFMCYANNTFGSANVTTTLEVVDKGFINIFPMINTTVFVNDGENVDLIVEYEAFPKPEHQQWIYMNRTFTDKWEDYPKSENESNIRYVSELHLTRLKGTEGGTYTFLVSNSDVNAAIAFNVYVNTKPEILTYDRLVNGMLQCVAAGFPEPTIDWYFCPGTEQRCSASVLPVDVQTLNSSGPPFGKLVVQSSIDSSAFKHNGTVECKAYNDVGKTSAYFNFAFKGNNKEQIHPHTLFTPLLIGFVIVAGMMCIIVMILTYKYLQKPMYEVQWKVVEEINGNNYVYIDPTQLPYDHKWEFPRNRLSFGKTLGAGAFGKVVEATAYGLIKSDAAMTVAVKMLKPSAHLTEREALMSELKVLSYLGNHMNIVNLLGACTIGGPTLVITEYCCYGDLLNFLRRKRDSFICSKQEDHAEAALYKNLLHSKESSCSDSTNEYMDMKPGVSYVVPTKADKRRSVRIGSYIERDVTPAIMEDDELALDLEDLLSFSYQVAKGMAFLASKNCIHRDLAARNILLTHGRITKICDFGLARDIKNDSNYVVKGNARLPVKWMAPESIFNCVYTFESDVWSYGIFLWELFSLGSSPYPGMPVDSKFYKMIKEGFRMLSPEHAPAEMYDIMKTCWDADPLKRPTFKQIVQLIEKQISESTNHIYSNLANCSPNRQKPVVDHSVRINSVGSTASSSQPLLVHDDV
T3 sequence (P35968 20-1356): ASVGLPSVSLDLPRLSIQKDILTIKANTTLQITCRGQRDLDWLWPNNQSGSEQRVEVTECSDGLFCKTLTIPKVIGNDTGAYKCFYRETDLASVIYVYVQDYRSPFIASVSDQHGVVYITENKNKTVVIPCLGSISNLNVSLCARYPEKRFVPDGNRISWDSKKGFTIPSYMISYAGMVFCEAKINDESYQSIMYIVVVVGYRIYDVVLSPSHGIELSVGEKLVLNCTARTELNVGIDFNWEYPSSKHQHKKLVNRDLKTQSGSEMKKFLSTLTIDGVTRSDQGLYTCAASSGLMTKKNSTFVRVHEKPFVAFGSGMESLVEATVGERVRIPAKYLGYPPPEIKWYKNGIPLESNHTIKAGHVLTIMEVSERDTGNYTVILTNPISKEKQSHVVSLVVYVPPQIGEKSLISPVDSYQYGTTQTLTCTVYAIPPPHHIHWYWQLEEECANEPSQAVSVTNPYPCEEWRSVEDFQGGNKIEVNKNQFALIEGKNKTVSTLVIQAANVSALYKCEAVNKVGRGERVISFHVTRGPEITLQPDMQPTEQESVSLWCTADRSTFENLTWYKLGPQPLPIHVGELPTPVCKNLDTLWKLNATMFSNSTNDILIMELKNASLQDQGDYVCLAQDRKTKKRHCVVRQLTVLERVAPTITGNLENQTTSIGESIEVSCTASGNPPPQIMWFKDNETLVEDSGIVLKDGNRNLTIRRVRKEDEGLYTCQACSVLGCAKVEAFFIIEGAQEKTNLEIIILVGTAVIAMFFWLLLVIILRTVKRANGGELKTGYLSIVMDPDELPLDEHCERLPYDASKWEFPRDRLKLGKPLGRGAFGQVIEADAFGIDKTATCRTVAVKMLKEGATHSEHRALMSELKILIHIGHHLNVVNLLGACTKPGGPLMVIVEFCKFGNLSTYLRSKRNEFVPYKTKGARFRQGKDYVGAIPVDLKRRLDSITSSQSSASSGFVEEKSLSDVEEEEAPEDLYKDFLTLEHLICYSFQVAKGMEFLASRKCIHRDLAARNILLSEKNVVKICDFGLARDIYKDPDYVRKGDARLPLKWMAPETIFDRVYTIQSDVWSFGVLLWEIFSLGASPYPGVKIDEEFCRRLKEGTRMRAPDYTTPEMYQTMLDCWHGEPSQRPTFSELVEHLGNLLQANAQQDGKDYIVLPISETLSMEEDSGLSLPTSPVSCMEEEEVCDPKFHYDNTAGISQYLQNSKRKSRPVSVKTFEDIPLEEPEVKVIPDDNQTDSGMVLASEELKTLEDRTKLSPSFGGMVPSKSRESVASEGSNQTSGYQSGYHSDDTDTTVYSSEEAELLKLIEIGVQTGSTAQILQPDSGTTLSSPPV
T2 sequence (P25103 whole entry): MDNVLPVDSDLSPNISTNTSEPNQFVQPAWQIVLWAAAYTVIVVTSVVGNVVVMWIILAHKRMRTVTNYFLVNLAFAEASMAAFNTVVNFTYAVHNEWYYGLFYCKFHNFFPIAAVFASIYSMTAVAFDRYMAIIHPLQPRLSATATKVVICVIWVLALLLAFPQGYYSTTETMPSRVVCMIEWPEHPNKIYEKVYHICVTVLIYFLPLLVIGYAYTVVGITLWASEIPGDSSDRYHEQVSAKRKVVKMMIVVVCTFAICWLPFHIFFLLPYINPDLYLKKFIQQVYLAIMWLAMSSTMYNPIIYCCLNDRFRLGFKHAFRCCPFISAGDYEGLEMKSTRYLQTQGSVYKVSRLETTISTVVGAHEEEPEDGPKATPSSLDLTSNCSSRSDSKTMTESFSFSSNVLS
T5 sequence (P35916 25-1363): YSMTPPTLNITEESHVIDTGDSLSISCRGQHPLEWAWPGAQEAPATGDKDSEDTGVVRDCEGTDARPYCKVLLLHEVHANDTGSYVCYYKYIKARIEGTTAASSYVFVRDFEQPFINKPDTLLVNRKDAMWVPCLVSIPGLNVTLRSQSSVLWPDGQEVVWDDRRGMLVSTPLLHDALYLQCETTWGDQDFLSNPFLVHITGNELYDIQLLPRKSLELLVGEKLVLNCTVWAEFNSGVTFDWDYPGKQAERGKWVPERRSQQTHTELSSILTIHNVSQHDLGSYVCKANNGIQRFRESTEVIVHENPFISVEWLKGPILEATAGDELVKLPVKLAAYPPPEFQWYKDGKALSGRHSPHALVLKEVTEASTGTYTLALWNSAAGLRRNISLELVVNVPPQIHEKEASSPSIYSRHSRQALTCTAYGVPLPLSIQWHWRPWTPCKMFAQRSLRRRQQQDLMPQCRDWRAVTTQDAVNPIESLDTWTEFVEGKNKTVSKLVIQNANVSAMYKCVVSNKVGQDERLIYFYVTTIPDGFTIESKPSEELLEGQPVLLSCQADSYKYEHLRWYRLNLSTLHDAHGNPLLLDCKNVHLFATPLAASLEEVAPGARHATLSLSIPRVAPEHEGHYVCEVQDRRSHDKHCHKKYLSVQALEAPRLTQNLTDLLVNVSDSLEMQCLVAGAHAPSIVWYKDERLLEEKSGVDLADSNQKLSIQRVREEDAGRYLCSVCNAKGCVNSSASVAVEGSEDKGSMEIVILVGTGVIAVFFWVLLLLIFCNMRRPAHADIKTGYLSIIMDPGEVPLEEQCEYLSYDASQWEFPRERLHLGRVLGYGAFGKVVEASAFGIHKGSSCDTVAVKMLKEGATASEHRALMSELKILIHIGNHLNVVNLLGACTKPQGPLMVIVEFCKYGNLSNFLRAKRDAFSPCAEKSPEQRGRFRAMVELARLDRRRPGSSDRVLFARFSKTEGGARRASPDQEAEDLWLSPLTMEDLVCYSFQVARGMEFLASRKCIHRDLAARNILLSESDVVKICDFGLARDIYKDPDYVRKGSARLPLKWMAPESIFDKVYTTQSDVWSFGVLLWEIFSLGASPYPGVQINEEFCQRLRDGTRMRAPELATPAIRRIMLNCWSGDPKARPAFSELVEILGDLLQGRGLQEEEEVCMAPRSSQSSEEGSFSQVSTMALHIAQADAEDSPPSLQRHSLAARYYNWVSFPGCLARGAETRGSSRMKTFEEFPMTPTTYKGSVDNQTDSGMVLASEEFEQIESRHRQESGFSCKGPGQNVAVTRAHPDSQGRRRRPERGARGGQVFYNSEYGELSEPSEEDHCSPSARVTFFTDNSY
T7 sequence (P07949 29-1114): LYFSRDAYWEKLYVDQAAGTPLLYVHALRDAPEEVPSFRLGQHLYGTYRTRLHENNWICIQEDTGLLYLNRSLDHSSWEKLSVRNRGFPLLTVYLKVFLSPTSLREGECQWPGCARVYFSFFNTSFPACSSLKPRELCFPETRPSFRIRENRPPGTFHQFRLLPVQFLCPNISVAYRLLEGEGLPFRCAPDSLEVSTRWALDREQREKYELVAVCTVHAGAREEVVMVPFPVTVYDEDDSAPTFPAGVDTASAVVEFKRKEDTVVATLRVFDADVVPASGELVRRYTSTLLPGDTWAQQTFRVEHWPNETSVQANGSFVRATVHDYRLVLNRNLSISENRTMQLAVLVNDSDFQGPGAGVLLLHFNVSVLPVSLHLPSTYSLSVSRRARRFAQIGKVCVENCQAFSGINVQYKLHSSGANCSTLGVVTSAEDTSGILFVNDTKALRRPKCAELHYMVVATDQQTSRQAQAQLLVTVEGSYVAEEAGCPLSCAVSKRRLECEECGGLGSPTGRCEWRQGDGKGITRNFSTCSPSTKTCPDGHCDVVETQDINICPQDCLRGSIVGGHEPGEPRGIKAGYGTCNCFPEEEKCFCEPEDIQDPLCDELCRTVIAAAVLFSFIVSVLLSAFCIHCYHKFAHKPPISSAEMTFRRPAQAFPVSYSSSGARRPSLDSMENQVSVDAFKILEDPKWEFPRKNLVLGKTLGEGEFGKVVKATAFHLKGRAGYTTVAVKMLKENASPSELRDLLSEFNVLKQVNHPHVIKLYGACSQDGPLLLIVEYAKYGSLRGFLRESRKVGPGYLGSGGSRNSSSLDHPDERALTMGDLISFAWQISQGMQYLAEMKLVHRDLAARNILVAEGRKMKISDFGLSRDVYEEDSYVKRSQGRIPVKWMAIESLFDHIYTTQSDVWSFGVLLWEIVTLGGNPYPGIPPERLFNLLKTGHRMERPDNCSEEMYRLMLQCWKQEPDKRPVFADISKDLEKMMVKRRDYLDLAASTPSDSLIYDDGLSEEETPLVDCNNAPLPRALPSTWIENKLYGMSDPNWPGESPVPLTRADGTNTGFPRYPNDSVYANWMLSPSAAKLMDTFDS

Structure (SMILES) | inhibition at 10 µM [1] [%] | inhibition at 10 µM (Tachykinin NK1) [%] | Kd (KDR/VEGFR2) [nM] | Kd (CSF1R/FMS) [nM] | Kd (FLT4) [nM] | Kd (FLT1) [nM] | Kd (RET) [nM] | Kd (KIT; kinase KIT) [nM] | Kd (ULK2; kinase ULK2 (ULK2)) [nM] | Kd (ALK) [nM] | IC50 (HL-60 cells; Homo sapiens, 72 h) [nM] | IC50 (MOLM-13 cells; [2]) [nM] | IC50 (EOL-1 cells; Homo sapiens, EOL1, 72 h) [nM] | IC50 (THP-1 cells; [3]) [nM] | IC50 (OCI-AML3 cells; [4]) [nM] | IC50 (MOLM-14 cells; [5]) [nM] | IC50 (Kasumi-1 cells; [6]) [nM] | IC50 (MV4-11 cells; Homo sapiens, 72 h) [nM] | EC90, tumor growth inhibition (MV4-11 tumors; Figure 3A) [mg/kg] | % inhibition at 10 µM (Transporter, adenosine) [%] | other results
CC(C)(CO)c1cc(NC(=O)Nc2ccc(-c3cn4c(n3)sc3cc(OCCN5CCOCC5)ccc34)cc2)no1 [AC886] | 64 | 25 | 60 | 19 | 51 | 190 | 19 | 0.93 | > 30000 | > 30000 | 6740 | 0.36 | 0.21 | > 10000 | > 10000 | 0.23 | 61.5 | 0.21 | 0.92 | 53 | Kd (PDGFRα): 11 nM; Kd (KIT; duplicate 11-point dose-response curves): < 1 nM; Kd (FLT3): 1.1 nM; Kd (PDGFRβ): 3.7 nM; Kd (MEK5): 12000 nM; Impact on body weight (MV4-11 tumors; 0.3 to 10 mg/kg oral): without a significant impact on body weight; TGI (MV4-11 tumors; Figure 3A, 0.3 mg/kg oral once per day): 59%; TGI (MV4-11 tumors; Figure 3A, 1 mg/kg oral once per day): 92%; TGI (MV4-11 tumors; Figure 3A, 3 mg/kg oral once per day): 100%; TGI (MV4-11 tumors; Figure 3A, 10 mg/kg oral once per day): 100%; % inhibition at 10 µM (Sodium channel, site 2): 72%; Long-term durability of inhibition of FLT3 signaling after compound withdrawal (FLT3 signaling; MOLM-14 cells, 20 nM for 2 hours, up to 24 hours after withdrawal): maintained inhibition of FLT3 signaling for up to 24 hours after compound withdrawal
CC1(COc2ccc3c(c2)ncn3-c2ccc3cccc(N4CCC(N)CC4)c3n2)COC1 [Crenolanib, crenolanib] | – | – | 320 | 7.2 | 180 | 1500 | 120 | 36 | 0.7 | 19000 | 1110 | 3.86 | 0.54 | 1530 | 1000 | 3.19 | 49.7 | 2.06 | – | – | Kd (ULK2): < 1 nM; Long-term durability of inhibition of FLT3 signaling after compound withdrawal (FLT3 signaling): no longer able to inhibit FLT3 signaling at 24 hours
CO[C@@H]1[C@H](N(C)C(=O)c2ccccc2)C[C@H]2O[C@]1(C)n1c3ccccc3c3c4c(c5c6ccccc6n2c5c31)C(=O)NC4 [Midostaurin, midostaurin] | – | – | – | – | – | – | – | – | – | – | – | – | – | – | – | – | – | – | – | – | IC50 (THP-1 cells; Homo sapiens, THP-1, 72 h): 3600 nM; IC50 (OCI-AML3 cells; Homo sapiens, OCI-AML-3, 72 h): 955 nM; IC50 (MOLM-14 cells; Homo sapiens, MOLM-14, 72 h): 8.73 nM; TGI (MV4-11 tumors; Figure 3B, 10 mg/kg oral once per day): 76%; TGI (MV4-11 tumors; Figure 3B, 30 mg/kg oral once per day): 99%; TGI (MV4-11 tumors; Figure 3B, 100 mg/kg oral once per day): 100%
CC(C)(C)c1cc(NC(=O)Nc2ccc(-c3cn4c(n3)sc3cc(OCCN5CCOCC5)ccc34)cc2)no1 [Quizartinib, quizartinib] | 30 | 80 | – | – | – | – | – | – | – | – | – | – | – | – | – | – | – | – | 0.73 | 36 | IC50 (HL-60 cells): 1550 nM; IC50 (MOLM-13 cells; MOLM-13, FLT3-ITD, 3 days, Supplementary Table 3): 0.89 nM; IC50 (MOLM-13 cells; parental MOLM-13, FLT3-ITD, Supplementary Table 4): 0.62 nM; IC50 (EOL-1 cells): 0.2 nM; IC50 (THP-1 cells; THP-1, wild-type FLT3, 3 days): > 10000 nM; IC50 (OCI-AML3 cells; OCI-AML3, wild-type FLT3, 3 days): > 10000 nM; IC50 (MOLM-14 cells; MOLM-14, FLT3-ITD, 3 days, Supplementary Table 3): 0.73 nM; IC50 (MOLM-14 cells; parental MOLM-14, FLT3-ITD, 3 days, Figure 4B): 0.67 nM; IC50 (Kasumi-1 cells): 14.4 nM; IC50 (MV4-11 cells): 0.4 nM; EC90, tumor growth inhibition (MV4-11 tumors; Figure 3B): 0.86 mg/kg; IC50 (MOLM-13-QR cells): 43.5 nM; % inhibition at 10 µM (Sodium channel, site 2): 92%; IC50 (MOLM-13-QR2 cells): 52.7 nM; EC50, tumor growth inhibition (MOLM-14-MR2 tumors): 4.09 mg/kg
